From patent publication US11572369B2, “Bicyclic pyridine compositions and methods of using the same for cancer therapy” (UNIVERSITY OF SOUTH CAROLINA, priority 2019, dated 2023)

What was measured:
Test in all cases: KINOMEscan
Assay type in all cases: binding
Conditions in all cases: 2000 nM
LZK = LZK (Homo sapiens, UniProt O43283)
SLK = biological target: T1, SLK (Homo sapiens, UniProt Q9H2G2)
T1 construct: purchased KINOMEscan (DiscoveRx)

VEGFR2 = biological target: T2, VEGFR2 (Homo sapiens, UniProt P35968)
T2 construct: DNA label (for qPCR read-out); purchased DiscoveRx (KINOMEscan scanMAX panel)

LIMK1 = biological target: T3, LIMK1 (Homo sapiens, UniProt P53667)
T3 construct: purchased KINOMEscan (DiscoveRx) panel service

PLK2 = biological target: T4, PLK2 (Homo sapiens, UniProt Q9NYY3)
T4 construct: purchased DiscoveRx (KINOMEscan scanMAX panel)

TTK = biological target: T5, TTK (Homo sapiens, UniProt P33981)
T5 construct: DNA label (for qPCR read-out); purchased DiscoveRx (KINOMEscan scanMAX panel)

GRK3 = biological target: T6, GRK3 (Homo sapiens, UniProt P35626)
T6 construct: DNA label (for qPCR read-out); purchased DiscoveRx (KINOMEscan scanMAX panel, contract assay)
T6 sequence (P35626 whole entry): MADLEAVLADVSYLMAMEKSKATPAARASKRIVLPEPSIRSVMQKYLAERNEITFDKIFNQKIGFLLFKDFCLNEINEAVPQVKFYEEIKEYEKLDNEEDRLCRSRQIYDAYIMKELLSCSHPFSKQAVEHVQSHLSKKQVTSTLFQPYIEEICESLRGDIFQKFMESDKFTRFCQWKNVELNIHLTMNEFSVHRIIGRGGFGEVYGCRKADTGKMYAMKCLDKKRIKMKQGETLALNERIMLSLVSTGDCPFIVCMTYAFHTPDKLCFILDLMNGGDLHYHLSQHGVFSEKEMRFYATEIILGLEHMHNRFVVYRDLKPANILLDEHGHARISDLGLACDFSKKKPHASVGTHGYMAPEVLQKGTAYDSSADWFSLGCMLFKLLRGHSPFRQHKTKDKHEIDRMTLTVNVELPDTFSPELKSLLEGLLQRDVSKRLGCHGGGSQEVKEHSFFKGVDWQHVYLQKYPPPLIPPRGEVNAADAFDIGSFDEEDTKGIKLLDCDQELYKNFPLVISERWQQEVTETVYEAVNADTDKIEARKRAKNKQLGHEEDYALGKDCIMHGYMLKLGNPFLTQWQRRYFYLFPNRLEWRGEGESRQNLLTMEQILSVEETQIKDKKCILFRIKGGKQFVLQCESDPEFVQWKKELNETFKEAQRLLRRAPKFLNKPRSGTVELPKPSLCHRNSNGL

BMPR1B = biological target: T7, BMPR1B (Homo sapiens, UniProt O00238)
T7 construct: DNA label (for qPCR read-out); purchased KINOMEscan scanMAX panel (DiscoveRx)

SgK110 = biological target: T8, SgK110 (Homo sapiens, UniProt P0C264)
T8 construct: purchased DiscoveRx (KINOMEscan scanMAX panel)

CAMKK1 = biological target: T9, CAMKK1 (Homo sapiens, UniProt Q8N5S9)
T9 construct: DNA label (qPCR read-out); purchased KINOMEscan (ScanMAX panel service)

MKNK2 = biological target: T10, MKNK2 (Homo sapiens, UniProt Q9HBH9)
T10 construct: DNA label (qPCR read-out); purchased KINOMEscan scanMAX panel (DiscoveRx)

TRPM6 = biological target: T11, TRPM6 (Homo sapiens, UniProt Q9BX84)
T11 construct: DNA label (for qPCR read-out); purchased DiscoveRx (KINOMEscan scanMAX panel)
T11 sequence (Q9BX84 whole entry): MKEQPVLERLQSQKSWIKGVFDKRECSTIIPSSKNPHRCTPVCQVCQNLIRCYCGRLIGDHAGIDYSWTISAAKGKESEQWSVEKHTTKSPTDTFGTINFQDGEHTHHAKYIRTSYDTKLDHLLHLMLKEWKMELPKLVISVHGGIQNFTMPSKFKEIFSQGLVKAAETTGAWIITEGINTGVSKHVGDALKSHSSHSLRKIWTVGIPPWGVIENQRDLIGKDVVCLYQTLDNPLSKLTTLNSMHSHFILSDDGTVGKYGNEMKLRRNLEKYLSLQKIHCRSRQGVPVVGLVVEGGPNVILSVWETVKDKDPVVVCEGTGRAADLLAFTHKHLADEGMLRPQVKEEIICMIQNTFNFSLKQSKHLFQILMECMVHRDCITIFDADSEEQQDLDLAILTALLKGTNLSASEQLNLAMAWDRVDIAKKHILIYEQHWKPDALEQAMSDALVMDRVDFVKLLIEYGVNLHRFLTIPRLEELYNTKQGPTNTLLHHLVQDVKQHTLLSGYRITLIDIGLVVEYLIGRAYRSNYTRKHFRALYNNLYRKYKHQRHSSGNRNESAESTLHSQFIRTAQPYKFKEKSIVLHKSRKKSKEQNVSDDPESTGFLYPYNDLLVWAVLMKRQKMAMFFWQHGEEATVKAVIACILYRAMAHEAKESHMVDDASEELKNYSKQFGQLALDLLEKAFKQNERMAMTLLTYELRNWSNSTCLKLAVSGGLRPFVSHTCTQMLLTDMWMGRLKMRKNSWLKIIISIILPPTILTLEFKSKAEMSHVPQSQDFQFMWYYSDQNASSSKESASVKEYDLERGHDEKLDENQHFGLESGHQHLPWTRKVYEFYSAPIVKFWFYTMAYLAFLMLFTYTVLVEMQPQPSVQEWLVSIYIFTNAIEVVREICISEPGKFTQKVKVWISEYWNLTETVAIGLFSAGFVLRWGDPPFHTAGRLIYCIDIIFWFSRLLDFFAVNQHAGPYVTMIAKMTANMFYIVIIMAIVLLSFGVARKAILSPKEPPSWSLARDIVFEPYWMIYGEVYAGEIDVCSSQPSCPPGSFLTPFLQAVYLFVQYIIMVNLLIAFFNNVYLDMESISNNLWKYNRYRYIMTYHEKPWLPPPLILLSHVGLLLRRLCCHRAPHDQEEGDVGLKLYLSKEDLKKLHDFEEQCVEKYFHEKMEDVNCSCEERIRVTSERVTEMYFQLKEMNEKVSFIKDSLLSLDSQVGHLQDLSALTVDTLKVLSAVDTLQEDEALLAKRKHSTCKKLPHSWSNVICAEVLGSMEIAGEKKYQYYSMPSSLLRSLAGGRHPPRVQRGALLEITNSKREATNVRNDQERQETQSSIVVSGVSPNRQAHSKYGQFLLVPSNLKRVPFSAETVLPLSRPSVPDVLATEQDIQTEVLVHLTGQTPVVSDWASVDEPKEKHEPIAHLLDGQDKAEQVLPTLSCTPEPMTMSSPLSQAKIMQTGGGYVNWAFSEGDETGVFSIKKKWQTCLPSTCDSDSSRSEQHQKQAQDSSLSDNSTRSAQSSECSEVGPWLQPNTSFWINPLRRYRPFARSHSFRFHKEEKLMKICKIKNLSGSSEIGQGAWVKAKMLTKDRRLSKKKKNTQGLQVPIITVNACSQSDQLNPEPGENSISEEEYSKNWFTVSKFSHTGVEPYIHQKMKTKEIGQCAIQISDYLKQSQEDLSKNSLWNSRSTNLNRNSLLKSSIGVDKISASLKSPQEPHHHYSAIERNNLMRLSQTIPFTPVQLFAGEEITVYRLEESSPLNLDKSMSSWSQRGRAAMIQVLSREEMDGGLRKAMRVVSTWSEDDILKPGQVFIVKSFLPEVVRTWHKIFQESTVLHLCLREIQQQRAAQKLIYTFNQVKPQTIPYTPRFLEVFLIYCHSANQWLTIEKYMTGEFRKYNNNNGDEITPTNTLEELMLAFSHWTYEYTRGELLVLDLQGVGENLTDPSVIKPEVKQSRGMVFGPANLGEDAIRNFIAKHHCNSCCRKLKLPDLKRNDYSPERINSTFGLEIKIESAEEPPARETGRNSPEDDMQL

PIK3CA(C420R) = biological target: T12, PIK3CA(C420R) (Homo sapiens, UniProt P42336, C420R)
T12 construct: DNA label; purchased DiscoveRx (KINOMEscan scanMAX panel)
T12 sequence (P42336 whole entry C420R): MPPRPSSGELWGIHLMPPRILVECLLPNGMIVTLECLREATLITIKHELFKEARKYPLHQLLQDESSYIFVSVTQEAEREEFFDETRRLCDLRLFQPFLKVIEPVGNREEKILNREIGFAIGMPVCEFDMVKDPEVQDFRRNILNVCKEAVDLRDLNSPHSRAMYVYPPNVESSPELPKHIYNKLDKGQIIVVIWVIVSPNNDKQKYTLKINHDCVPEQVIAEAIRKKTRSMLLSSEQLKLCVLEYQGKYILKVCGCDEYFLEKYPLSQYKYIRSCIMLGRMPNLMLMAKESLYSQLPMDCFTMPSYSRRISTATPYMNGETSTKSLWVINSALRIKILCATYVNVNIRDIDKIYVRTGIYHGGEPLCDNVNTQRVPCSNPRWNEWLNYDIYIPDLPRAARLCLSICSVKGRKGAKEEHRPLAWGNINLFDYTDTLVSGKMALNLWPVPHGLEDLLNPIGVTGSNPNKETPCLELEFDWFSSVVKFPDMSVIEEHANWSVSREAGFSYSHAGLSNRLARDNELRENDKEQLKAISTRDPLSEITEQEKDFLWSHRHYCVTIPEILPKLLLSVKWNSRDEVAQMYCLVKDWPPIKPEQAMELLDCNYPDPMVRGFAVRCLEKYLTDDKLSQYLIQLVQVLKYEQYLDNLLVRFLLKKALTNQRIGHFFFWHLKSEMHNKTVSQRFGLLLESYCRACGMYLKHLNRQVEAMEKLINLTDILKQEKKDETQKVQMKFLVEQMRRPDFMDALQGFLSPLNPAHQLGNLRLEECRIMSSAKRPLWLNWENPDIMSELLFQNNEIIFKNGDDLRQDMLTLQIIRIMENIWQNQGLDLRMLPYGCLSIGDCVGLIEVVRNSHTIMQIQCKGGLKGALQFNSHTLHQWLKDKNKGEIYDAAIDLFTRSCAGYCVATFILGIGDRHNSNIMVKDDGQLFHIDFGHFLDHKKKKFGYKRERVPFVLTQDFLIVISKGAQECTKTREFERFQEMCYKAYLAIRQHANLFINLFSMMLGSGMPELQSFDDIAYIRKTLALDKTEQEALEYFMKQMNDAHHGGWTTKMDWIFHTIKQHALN

[1] = biological target: ABL1(Y253F)-phosphorylated (Homo sapiens, UniProt P00519, Y253F)
ERK8 = biological target: T13, ERK8 (Homo sapiens, UniProt Q8TD08)
T13 construct: DNA label (qPCR read-out); purchased DiscoveRx (KINOMEscan ScanMAX panel)

WNK4 = biological target: T14, WNK4 (Homo sapiens, UniProt Q96J92)
T14 construct: purchased KINOMEscan (DiscoveRx) panel service

ABL1-nonphosphorylated = ABL1-nonphosphorylated (Homo sapiens, UniProt P00519)
PIK3C2B = biological target: T15, PIK3C2B (Homo sapiens, UniProt O00750)
T15 construct: DNA label (for qPCR read-out); purchased DiscoveRx (KINOMEscan scanMAX service)

PKN1 = biological target: T16, PKN1 (Homo sapiens, UniProt Q16512)
T16 construct: DNA label (qPCR read-out); purchased KINOMEscan (DiscoveRx) panel

CDK4-cyclinD3 = biological target: T17, CDK4-cyclinD3 (Homo sapiens, UniProt P11802)
T17 construct: purchased DiscoverX (KINOMEscan service)

MRCKA = biological target: T18, MRCKA (Homo sapiens, UniProt Q5VT25)
T18 construct: DNA label (qPCR read-out); purchased KINOMEscan scanMAX panel (DiscoveRx)

PIK3CA(E545K) = biological target: T19, PIK3CA(E545K) (Homo sapiens, UniProt P42336, E545K)
T19 construct: DNA label; purchased DiscoveRx (KINOMEscan scanMAX panel)
T19 sequence (P42336 whole entry E545K): as the sequence (P42336 whole entry C420R) above, with R420C, E545K counted along it

FLT3(N841I) = biological target: T20, FLT3(N841I) (Homo sapiens, UniProt P36888, N841I)
T20 construct: purchased KINOMEscan (DiscoveRx)

SYK = biological target: T21, SYK (Homo sapiens, UniProt P43405)
T21 construct: DNA label (for qPCR read-out); purchased DiscoveRx (KINOMEscan scanMAX panel, contract assay)

DYRK1B = biological target: T22, DYRK1B (Homo sapiens, UniProt Q9Y463)
T22 construct: DNA label (qPCR read-out); purchased KINOMEscan (DiscoveRx) panel

MAP3K2 = MAP3K2 (Homo sapiens, UniProt Q9Y2U5)
GSK3A = biological target: T23, GSK3A (Homo sapiens, UniProt P49840)
T23 construct: DNA label (qPCR read-out); purchased DiscoverX (assay service)

MYO3A = biological target: T24, MYO3A (Homo sapiens, UniProt Q8NEV4)
T24 construct: DNA label (for qPCR read-out); purchased KINOMEscan scanMAX panel (DiscoveRx)

CDK11 (CDK19) = biological target: T25, CDK11 (CDK19) (Homo sapiens, UniProt Q9BWU1)
T25 construct: purchased DiscoverX (KINOMEscan service)

STK39 = biological target: T26, STK39 (Homo sapiens, UniProt Q9UEW8)
T26 construct: DNA label (for qPCR read-out); purchased DiscoveRx (KINOMEscan scanMAX panel, contract assay)

[2] = biological target: ABL1(F317L)-nonphosphorylated (Homo sapiens, UniProt P00519, F317L)
MELK = biological target: T27, MELK (Homo sapiens, UniProt Q14680)
T27 construct: purchased DiscoveRx (KINOMEscan scanMAX panel, service)

PKAC-beta = biological target: T28, PKAC-beta (Homo sapiens, UniProt P22694)
T28 construct: DNA label (qPCR read-out); purchased KINOMEscan (DiscoveRx) panel

EGFR(E746-A750del) = biological target: T29, EGFR(E746-A750del) (Homo sapiens, UniProt P00533, DEL746-750)
T29 construct: purchased DiscoveRx (KINOMEscan scanMAX panel)

NEK7 = biological target: T30, NEK7 (Homo sapiens, UniProt Q8TDX7)
T30 construct: DNA label (qPCR read-out); purchased KINOMEscan (ScanMAX panel service)

T1 sequence (Q9H2G2 whole entry): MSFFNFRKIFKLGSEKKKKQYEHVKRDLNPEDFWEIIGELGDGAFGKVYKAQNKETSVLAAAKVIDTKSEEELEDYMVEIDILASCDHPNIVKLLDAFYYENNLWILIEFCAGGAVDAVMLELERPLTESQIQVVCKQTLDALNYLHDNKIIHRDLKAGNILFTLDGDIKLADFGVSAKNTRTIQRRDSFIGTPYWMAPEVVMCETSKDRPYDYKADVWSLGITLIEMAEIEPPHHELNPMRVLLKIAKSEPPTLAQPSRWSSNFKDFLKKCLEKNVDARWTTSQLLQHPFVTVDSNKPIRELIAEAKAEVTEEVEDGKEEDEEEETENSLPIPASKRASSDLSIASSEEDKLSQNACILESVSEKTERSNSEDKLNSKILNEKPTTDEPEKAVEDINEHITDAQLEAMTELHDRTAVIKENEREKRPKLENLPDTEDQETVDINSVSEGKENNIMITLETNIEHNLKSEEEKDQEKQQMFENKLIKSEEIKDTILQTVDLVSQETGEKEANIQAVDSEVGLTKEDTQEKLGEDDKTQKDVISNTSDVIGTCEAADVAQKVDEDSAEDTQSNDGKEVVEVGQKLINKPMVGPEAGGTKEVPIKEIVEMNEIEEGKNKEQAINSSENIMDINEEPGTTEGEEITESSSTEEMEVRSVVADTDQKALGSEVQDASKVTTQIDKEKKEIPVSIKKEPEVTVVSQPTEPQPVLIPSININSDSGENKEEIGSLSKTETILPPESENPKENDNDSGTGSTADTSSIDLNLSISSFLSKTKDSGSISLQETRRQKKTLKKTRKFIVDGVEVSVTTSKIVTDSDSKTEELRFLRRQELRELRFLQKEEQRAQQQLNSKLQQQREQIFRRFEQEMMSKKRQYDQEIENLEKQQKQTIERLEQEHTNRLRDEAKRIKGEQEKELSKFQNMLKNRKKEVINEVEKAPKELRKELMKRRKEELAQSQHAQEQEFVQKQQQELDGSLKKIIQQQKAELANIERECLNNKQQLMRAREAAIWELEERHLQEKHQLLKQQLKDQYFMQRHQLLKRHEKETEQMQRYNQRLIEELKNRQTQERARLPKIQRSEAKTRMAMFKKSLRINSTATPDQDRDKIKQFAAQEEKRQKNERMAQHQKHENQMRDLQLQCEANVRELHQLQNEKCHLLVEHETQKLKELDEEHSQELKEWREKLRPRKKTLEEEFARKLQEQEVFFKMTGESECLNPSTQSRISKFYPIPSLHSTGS

| Compound | % Ctrl (LZK) | % Ctrl (SLK) | % Ctrl (VEGFR2) | % Ctrl (LIMK1) | % Ctrl (PLK2) | % Ctrl (TTK) | % Ctrl (GRK3) | % Ctrl (BMPR1B) | % Ctrl (SgK110) | % Ctrl (CAMKK1) | % Ctrl (MKNK2) | % Ctrl (TRPM6) | % Ctrl (PIK3CA(C420R)) | % Ctrl [1] | % Ctrl (ERK8) | % Ctrl (WNK4) | % Ctrl (ABL1-nonphosphorylated) | % Ctrl (PIK3C2B) | % Ctrl (PKN1) | % Ctrl (CDK4-cyclinD3) | other results |
| --- | --- | --- | --- | --- | --- | --- | --- | --- | --- | --- | --- | --- | --- | --- | --- | --- | --- | --- | --- | --- | --- |
| CN(C)C(=O)c1ccc(N2CCCN(c3ccnc4sc(C(N)=O)c(N)c34)CC2)cc1 [15u, 3-amino-4-(4-(4-(dimethylcarbamoyl)phenyl)-1,4-diazepan-1-yl)thieno[2,3-b]pyridine-2-carboxamide] | 100 % Ctrl | 56 % Ctrl | 67 % Ctrl | 100 % Ctrl | 100 % Ctrl | 83 % Ctrl | 99 % Ctrl | 100 % Ctrl | 95 % Ctrl | 96 % Ctrl | 83 % Ctrl | 100 % Ctrl | 100 % Ctrl | 100 % Ctrl | 98 % Ctrl | 60 % Ctrl | 95 % Ctrl | 89 % Ctrl | 96 % Ctrl | 95 % Ctrl | % Ctrl (MRCKA): 94 % Ctrl; % Ctrl (PIK3CA(E545K)): 96 % Ctrl; % Ctrl (FLT3(N841I)): 90 % Ctrl; % Ctrl (SYK): 95 % Ctrl; % Ctrl (DYRK1B): 69 % Ctrl; % Ctrl (MAP3K2): 98 % Ctrl; % Ctrl (GSK3A): 31 % Ctrl; % Ctrl (MYO3A): 100 % Ctrl; % Ctrl (CDK11 (CDK19)): 13 % Ctrl; % Ctrl (STK39): 93 % Ctrl; % Ctrl [2]: 99 % Ctrl; % Ctrl (MELK): 75 % Ctrl; % Ctrl (PKAC-beta): 83 % Ctrl; % Ctrl (EGFR(E746-A750del)): 100 % Ctrl; % Ctrl (NEK7): 100 % Ctrl |
| [2H]C([2H])([2H])N(C(=O)c1ccc(N2CCCN(c3ccnc4sc(C(N)=O)c(N)c34)CC2)cc1)C([2H])([2H])[2H] [15u_D6, 3-amino-4-(4-(4-(bis(methyl-d3)carbamoyl)phenyl)-1,4-diazepan-1-yl)thieno[2,3-b]pyridine-2-carboxamide] | 87 % Ctrl | 54 % Ctrl | 84 % Ctrl | 100 % Ctrl | 86 % Ctrl | 80 % Ctrl | 87 % Ctrl | 62 % Ctrl | 100 % Ctrl | 100 % Ctrl | 69 % Ctrl | 80 % Ctrl | 86 % Ctrl | 81 % Ctrl | 99 % Ctrl | 98 % Ctrl | 78 % Ctrl | 87 % Ctrl | 100 % Ctrl | 97 % Ctrl | % Ctrl (MRCKA): 100 % Ctrl; % Ctrl (PIK3CA(E545K)): 91 % Ctrl; % Ctrl (FLT3(N841I)): 86 % Ctrl; % Ctrl (SYK): 100 % Ctrl; % Ctrl (DYRK1B): 100 % Ctrl; % Ctrl (MAP3K2): 86 % Ctrl; % Ctrl (GSK3A): 34 % Ctrl; % Ctrl (MYO3A): 100 % Ctrl; % Ctrl (CDK11 (CDK19)): 0 % Ctrl; % Ctrl (STK39): 94 % Ctrl; % Ctrl [2]: 100 % Ctrl; % Ctrl (MELK): 84 % Ctrl; % Ctrl (PKAC-beta): 100 % Ctrl; % Ctrl (EGFR(E746-A750del)): 100 % Ctrl; % Ctrl (NEK7): 86 % Ctrl |
